Tests used:
[1] = tested on: tumor-bearing mice; experiment: Serum biochemical parameters (ALT, AST, creatinine, urea) of tumor-bearing mice treated with ART; assay type: in vivo, BALB/c mice; conditions: 7 days
Description: Mouse mammary 4T1 cells in passage numbers between 7 and 12 (10^4 cells/ml in 50 µl PBS) were injected into the inguinal 4th mammary fat pad of BALB/c mice ([23], [24]). Normal mice received an equal volume of sterile PBS. A palpable tumor was allowed to develop for 14 days ([24]). […] Normal (mammary fat pad surrounding the 4th inguinal mammary pad), mammary tumor, and organs like lungs, kidney, liver, and blood were collected at the end of the experimental schedule. Body weight and tumor volume of each mouse were recorded daily during the tenure of the experiment. Tumor volume was calculated using the following formula: length (mm) × width^2 (mm) × 0.52 ([25]). Levels of alanine aminotransferase (ALT) and aspartate aminotransferase (AST) from the serum were determined using ALT and AST estimation kits (Robonik India Pvt. Ltd, India). Briefly, for ALT activity estimation, Reagent 1 (Tris Buffer, L-Alanine, Lactate Dehydrogenase) and Reagent 2 (α-ketoglutarate, NADH) was mixed (4:1) with 100 µl serum. After 60 seconds incubation, absorbance was measured at 340 nm every minute for 180 seconds (ΔA/minute). Finally, the activity was estimated using the formula: Activity of the sample = (ΔA/minute x 1746). Analysis and final calculations were carried out according to the manufacturer’s protocol ([29]) For AST activity estimation, Reagent 1 (Tris Buffer, L-Aspartate, Lactate Dehydrogenase; >600U/L, Malate dehydrogenase; >600U/L) and Reagent 2 (α-ketoglutarate, NADH) was mixed together (4:1) with 100 µl serum. After incubation for 60 seconds, absorbance was measured at 340 nm per minute for 180 seconds (ΔA/minute). Finally, the activity was estimated using the formula: Activity of the sample = (ΔA/minute x 1746). Analysis and final calculations were carried out according to the manufacturer’s protocol ([30]). For estimation of creatinine level, picric acid (0.5 ml), buffer (0.5 ml) and sample (Test)/standard (S) (0.1 ml) were mixed and absorbance was measured at 520 nm for 30 seconds and 60 seconds. The rate of change of absorbance was determined for the standard (ΔS) and test (ΔT) samples. The levels were estimated using the formula: creatinine (mg/dl) = (ΔT)/(ΔS) x 2.0 ([31]). Urea levels were estimated using specific metabolite analysis kits. Buffer (1 ml), enzyme (0.1 ml), sample (test)/standard (0.1 ml) and chromogen reagent (0.2 ml) were mixed. Absorbance was measured at 570 nm after 5 minutes of incubation of test (Abs T) and standard (Abs S) samples. The levels were estimated using the formula: Urea (mg/dl) = (AbsT)/(AbsS) x 40. Analysis and calculations were carried out according to the manufacturer’s protocol ([32]).

[2] = tested on: TNF-α, IL-1β, IL-6 and IL-12; experiment: Serum pro-inflammatory cytokine ELISA; assay type: in vivo, BALB/c mice; conditions: ART-treated vs untreated tumor-bearing mice
Description: Serum isolated from experimental mice, and conditioned media collected from MDA-MB-231 and 4T1 cells, were used to estimate levels of cytokines by ELISA. To prepare the conditioned media, the cell culture medium containing serum was discarded and cells were washed with serum-free DMEM media. […] After incubation, the conditioned media was collected for cytokine analysis. As per the manufacturer’s protocol, samples were added to the multi-analyte ELISArray wells, coated with antibodies for TNF-α, IL-1β, IL-6 and IL-12 and incubated for 2 hours. Detection antibodies were added, followed by 30 minutes incubation with avidin-HRP. After incubating with the developing solution, stop solution (Qiagen) was added to terminate the reaction ([39]). The O.D. was measured at 450 and 570 nm in an ELISA plate reader (Varioskan Lux, Thermo Fisher; USA).

Work on `C[C@@H]1CC[C@H]2[C@@H](C)C(=O)O[C@@H]3O[C@@]4(C)CC[C@@H]1[C@]32OO4` [ART, Artemisinin] yielded an ALT ([1]; ART 6.25 mg/kg body wt i.p.) of 43.8 ± 1.8 U/l, an AST ([1]; ART 6.25 mg/kg body wt i.p.) of 38.6 ± 2.6 U/l and a Creatinine ([1]; ART 6.25 mg/kg body wt i.p.) of 1.21 ± 0.21 mg/dL. For the same compound, the Urea ([1]; ART 6.25 mg/kg body wt i.p.) was 44.5 ± 1.8 mg/dL, the ALT ([1]; ART 12.5 mg/kg body wt i.p.) was 41.3 ± 3.1 U/l and the AST ([1]; ART 12.5 mg/kg body wt i.p.) was 38.2 ± 2.4 U/l. It also gave a Creatinine ([1]; ART 12.5 mg/kg body wt i.p.) of 0.85 ± 0.18 mg/dL, a Urea ([1]; ART 12.5 mg/kg body wt i.p.) of 32.3 ± 0.5 mg/dL and an ALT ([1]; ART 25 mg/kg body wt i.p.) of 38.9 ± 2.9 U/l. It also gave an AST ([1]; ART 25 mg/kg body wt i.p.) of 33.2 ± 2.8 U/l, a Creatinine ([1]; ART 25 mg/kg body wt i.p.) of 0.71 ± 0.16 mg/dL and a Urea ([1]; ART 25 mg/kg body wt i.p.) of 32.2 ± 1.1 mg/dL. It also gave an ALT ([1]; ART 50 mg/kg body wt i.p.) of 36.6 ± 1.6 U/l, an AST ([1]; ART 50 mg/kg body wt i.p.) of 31.8 ± 2.9 U/l and a Creatinine ([1]; ART 50 mg/kg body wt i.p.) of 0.68 ± 0.11 mg/dL. For the same compound, the Urea ([1]; ART 50 mg/kg body wt i.p.) was 27.1 ± 1.4 mg/dL and the “levels of pro-inflammatory cytokines (TNF-α, IL-1β, IL-6 and IL-12)” value [2] was “dose-dependent reduction”.

— PMC10748408 (Frontiers in Oncology, 2023)
